Measured values: patent publication US20260224574A1, “ANTIFUNGAL COMPOSITIONS AND METHODS OF USE THEREOF” (ARIZONA BOARD OF REGENTS ON BEHALF OF THE UNIVERSITY OF …, priority 2023, published 2026)

Test system: Cne H99 strain
Assay: cell-based anti-Cryptococcus neoformans growth inhibition dose-response assay (resazurin to resorufin fluorescence)
Details: Cne H99, concentration series 0.02-50 μM, 24 hours incubation
Procedure: For primary screening, a cell-based high-throughput screening (HTS) assay was developed for testing the growth inhibition of Cne H99 strain of fungus. […] After standardizing the assay in 96 well plates, it was optimized in a 384-well plate.
The compound library included known bioactives, commercial libraries, and academic molecules. For HTS, the fungal cells were grown in SD broth overnight and diluted in Sabouraud dextrose (SD) broth to an optical density at 600 nm (OD600) of 0.5. […] From this cell suspension, 20 μL of the cells was added to each well of the 384-well assay plate (black, clear bottom) containing test compounds. Plates with test compounds were prepared by adding 20 μL of RPMI-MOPS medium to each well using a liquid dispenser (Thermo Multidrop Combi), followed by transferring 1 μL of the test compounds to all wells of the 22 columns in the assay plate using a robot. Dimethyl sulfoxide (DMSO) as vehicle control or 0.8 μM AmB as positive control was added manually to the remaining two columns using a multichannel pipet. […] Additionally, the absorbance was also read at 600 nm using the plate reader (EnVision, PerkinElmer).
Concentration series (0.02-50 μM) of test compounds and equalizing volume of DMSO were dispensed, using a liquid handler (D300e, Hewlett-Packard), to the 384-well plates. Following the addition of the Cne cells, the assay plates were incubated for 24 hours, followed by a fluorescence reading of resorufin as explained for single-concentration screening. The IC50 was calculated by graphpad prism.

[1] = Cryptococcus neoformans, H99STRAIN

CCCCCCCCCCCCCCCC[N+](C)(C)CCN(Cc1ccc(OC)cc1)c1ncccn1 [compound 28]
IC50 [1]: 3.39 µM

COc1cc(Nc2ncc3ccn(-c4cccc(CCC#N)c4)c3n2)cc(OC)c1OC [compound 57]
IC50 [1]: 6.84 µM

c1ccc(CCNc2ncnc3ccsc23)cc1 [compound 49]
IC50 [1]: 5.83 µM

Cc1cccc2c1-c1sc(C(=O)NCCCN3CCC(Cc4ccccc4)CC3)cc1CO2 [compound 15]
IC50 [1]: 2.53 µM

Clc1cc(Cl)c(OCC#CI)cc1Cl [compound 6]
IC50: 1.44 µM

COC(=O)c1sc(-c2cccs2)cc1N1C(=O)C=CC1=O [compound 36]
IC50: 4.87 µM

O=C(NNc1ccccc1)c1ccncc1 [compound 25]
IC50 [1]: 3.1 µM

CC(C)CCOc1cccc(OCC(=O)Nc2ccncc2)c1 [compound 30]
IC50 [1]: 3.94 µM

O=C(Nc1ccc(Br)c(C(F)(F)F)c1)c1cccs1 [compound 38]
IC50 [1]: 4.96 µM

O=C1C=CC(=O)N1Cc1ccc(Cl)cc1 [compound 67]
IC50 [1]: 8.09 µM

Nc1nc2ccc(Oc3ccccc3)cc2s1 [compound 78]
IC50 [1]: 9.2 µM

CCC(C)c1ccc(N2C(=O)C=CC2=O)cc1 (stereo not drawn) [compound 45]
IC50: 5.49 µM

CNC(=O)c1ccccc1Nc1nc(Nc2ccc(N3CCOCC3)cc2OC)ncc1Cl [compound 16]
IC50 [1]: 2.57 µM

NC(=O)c1cnc(NCCc2ccc(O)c(Cl)c2)nc1NCc1ccccc1 [compound 52]
IC50: 6.28 µM

Clc1ccc(C(c2ccc(Cl)cc2)[n+]2ccn(CC(OCc3ccc(Cl)cc3Cl)c3ccc(Cl)cc3Cl)c2)cc1 (stereo not drawn) [compound 17]
IC50 [1]: 2.63 µM

Oc1cccnc1NC(c1ccc(Cl)cc1)c1ccc2cccnc2c1O (stereo not drawn) [compound 33]
IC50 [1]: 4.63 µM

Cc1ccccc1Nc1nc(Nc2ccccc2)c2cnn(C)c2n1 [compound 44]
IC50: 5.38 µM

OC(CNCc1ccc(-c2ccc(Cl)cc2Cl)o1)c1ccccc1 (stereo not drawn) [compound 51]
IC50 [1]: 6.09 µM

Cc1oc2ncnc(N3CCC(C(=O)NCc4ccc(Cl)cc4)CC3)c2c1C [compound 58]
IC50 [1]: 6.87 µM

Cc1nn2c(NCCN(C)C)cc(C(C)(C)C)nc2c1-c1ccc(F)cc1 [compound 83]
IC50 [1]: 9.92 µM

CCCCCCCCCOc1ccc2[nH]cc(CCN)c2c1 [compound 50]
IC50 [1]: 6.04 µM

C(=N/n1cnnc1)/c1ccc(N(c2ccccc2)c2ccccc2)cc1 [compound 90]
IC50: 10.5 µM

Cc1nc(NCCC2=CCCCC2)c2c(C)noc2n1 [compound 19]
IC50 [1]: 2.92 µM

CSc1cccc(N2C(=O)C=CC2=O)c1 [compound 70]
IC50 [1]: 8.2 µM

OCCCNc1cc(-c2ccnc(Nc3cccc(Cl)c3)n2)ccn1 [compound 8]
IC50 [1]: 1.66 µM

Cc1ccc(S(=O)(=O)C=CC#N)cc1 [compound 39]
IC50: 5.07 µM

Clc1ccc(-c2ccc(CNCc3ccccn3)o2)c(Cl)c1 [compound 72]
IC50 [1]: 8.46 µM

Cc1cc(C)cc(N2C(=O)C=CC2=O)c1 [compound 42]
IC50: 5.31 µM

CCN(CC)c1cc(C)c2cc(NC(=O)Nc3ccc(Br)cc3)ccc2n1 [compound 71]
IC50 [1]: 8.38 µM

Cc1ccc2nc(-c3ccc(N4C(=O)CC(N5CCC(C)CC5)C4=O)cc3)sc2c1 (stereo not drawn) [compound 61]
IC50 [1]: 7.28 µM

COc1ccc(OCc2nnc3sc(-c4ccc5c(c4)OCCO5)nn23)cc1 [compound 3]
IC50: 0.6 µM

Cc1ccc(Cl)cc1N1CCN(C(=O)C2CCN(Cc3nc(-c4ccc(Cl)cc4)oc3C)CC2)CC1 [compound 59]
IC50 [1]: 6.93 µM

O=c1nc(SCc2ccccc2)c2c(n1Cc1ccccc1)CCC2 [compound 21]
IC50 [1]: 3 µM

O=c1cc(-c2ccccc2)cc(-c2ccccc2)n1O [compound 74]
IC50 [1]: 8.63 µM

CC1CCN(c2nc(Cl)nc3ccccc23)CC1 [compound 77]
IC50 [1]: 9.01 µM

CCc1noc2nc(C)nc(NCCC3=CCCCC3)c12 [compound 23]
IC50 [1]: 3.14 µM

CCN(CC)CCN1COc2c(cc(Cl)c3cccnc23)C1 [compound 66]
IC50 [1]: 8.08 µM

Cc1ccc(CNc2nc(C)nc3onc(C)c23)cc1 [compound 18]
IC50 [1]: 2.73 µM

COc1ccc(CC2NCC(O)C2OC(C)=O)cc1 (stereo not drawn) [compound 81]
IC50: 9.69 µM

Cc1ccc(Nc2nc3nonc3nc2Nc2ccccc2F)cc1Cl [compound 24]
IC50 [1]: 3.15 µM

CN(C)CC1COc2ccccc2C1=O (stereo not drawn) [compound 79]
IC50 [1]: 9.27 µM

Clc1ccc(-c2ccc(CNCc3ccc4c(c3)OCO4)o2)cc1 [compound 55]
IC50 [1]: 6.59 µM

Cc1ccc(Sc2cccc3nc(N)nc(N)c23)cc1 [compound 76]
IC50 [1]: 8.75 µM

COc1cccc(-c2cc(F)ccc2[C@H]2Cc3nc(N)nc(C)c3C(=O)N2)n1 [compound 29]
IC50 [1]: 3.62 µM

Cc1noc2ncnc(N3CCC(c4ccccc4)C3)c12 (stereo not drawn) [compound 53]
IC50 [1]: 6.29 µM

Cc1cc(Nc2nc(NC(C)c3ccc(F)cc3)c(C#N)cc2F)n[nH]1 (stereo not drawn) [compound 89]
IC50: 10.4 µM

Cc1c(Cl)cccc1N1C(=O)C=CC1=O [compound 20]
IC50 [1]: 2.95 µM

COc1ccc(-c2cc(C(=O)NCCN3CCCCC3)c3cccc(-c4ccc(F)cc4)c3n2)cc1 [compound 75]
IC50 [1]: 8.74 µM

COc1cc(CN2CCCCCCOc3ccccc3Oc3ccc(Cl)cc3NC(=O)C2)ccc1OCCN(C)C [compound 64]
IC50 [1]: 7.75 µM

CC(C)(C)c1cc(C=C(C#N)C#N)cc(C(C)(C)C)c1O [compound 65]
IC50 [1]: 7.87 µM

Nc1ccc2ncnc(NCCc3ccc(Oc4ccccc4)cc3)c2c1 [compound 10]
IC50: 1.83 µM

O=C1C=CC(=O)N1c1ccccc1Br [compound 32]
IC50 [1]: 4.61 µM

O=C1C=CC(=O)N1c1ccccc1Oc1ccc(Cl)cc1Cl [compound 80]
IC50 [1]: 9.65 µM

CCc1noc2ncnc(NCCC3=CCCCC3)c12 [compound 31]
IC50 [1]: 4.09 µM

CC[n+]1c(/C=C/C=C2/N(C)c3ccccc3C2(C)C)sc2ccccc21 [compound 7]
IC50 [1]: 1.57 µM

CC(C)c1ccc2c(c1)CCC1C(C)(CN)CCCC21C (stereo not drawn) [compound 73]
IC50 [1]: 8.59 µM

COc1ccc(OCc2nnc3sc(-c4ccc(OC)c(OC)c4)nn23)cc1 [compound 47]
IC50 [1]: 5.59 µM

O=C(Nc1ccc(F)c(Cl)c1)c1ccc(Nc2ccnc(-c3ccc(F)cc3)n2)cc1 [compound 63]
IC50 [1]: 7.65 µM

COC(=O)Nc1nc2cc(SC(C)C)ccc2[nH]1 [compound 40]
IC50 [1]: 5.08 µM

CN1c2cc3c(cc2N=C(c2ccc(C(=O)O)cc2)c2ccccc21)C(C)(C)CCC3(C)C [compound 88]
IC50: 10.1 µM

CCOC(=O)C1CCN(c2ncnc3scc(C)c23)CC1 [compound 56]
IC50 [1]: 6.6 µM

CC(C)CCNCC(O)Cn1c2ccc(Br)cc2c2cc(Br)ccc21 (stereo not drawn) [compound 12]
IC50: 2.41 µM

CCOC(=O)c1sc(NC(=O)c2ccco2)c(SC#N)c1C [compound 22]
IC50: 3.11 µM

CC(C)(c1ccc(OCC2CO2)cc1)c1ccc(OCC2CO2)cc1 (stereo not drawn) [compound 54]
IC50 [1]: 6.42 µM

O=c1nc(SCc2ccc(F)cc2)c2c(n1Cc1ccccc1)CCC2 [compound 11]
IC50: 2.27 µM

CCc1ccc(-c2nc3ccccn3c2CNCc2cccc(C)c2)cc1 [compound 91]
IC50 [1]: 10.7 µM

c1cc2c(cc1C1CCCCC1)c1c3n2CCNC3CCC1 (stereo not drawn) [compound 14]
IC50 [1]: 2.52 µM

O=C1C=CC(=O)N1c1ccc(-n2ccc(C(F)(F)F)n2)cc1 [compound 60]
IC50 [1]: 7.06 µM

CN1CCC(C(=O)N2CCC3(CCCCc4ccccc4OCCN(Cc4ccccc4)C3)CC2)CC1 [compound 87]
IC50 [1]: 10.1 µM

CCCCOc1ccc(-c2cc3c(N4CCN(CC)CC4)nccn3n2)cc1 [compound 69]
IC50: 8.19 µM

O=c1c2ccccc2oc2cc(O)cc(O)c12 [compound 62]
IC50 [1]: 7.59 µM

Clc1ccc(CCNc2ncnc3sccc23)cc1 [compound 1]
IC50: 0.35 µM

Brc1ccc(-c2ccc(CNCc3ccco3)o2)cc1 [compound 85]
IC50 [1]: 9.96 µM

OC(CNCc1ccc(-c2cc(Cl)ccc2Cl)o1)c1ccccc1 (stereo not drawn) [compound 82]
IC50 [1]: 9.78 µM

O=C1C=CC(=O)N1CCc1ccccc1 [compound 48]
IC50 [1]: 5.63 µM

CCCCCCCCc1ccc(CCC(N)(CO)CO)cc1 [compound 35]
IC50: 4.76 µM

O=[N+]([O-])/C=C/c1ccc2c(c1)OCO2 [compound 43]
IC50 [1]: 5.31 µM

Cc1nc(NCc2ccccc2)c2c(C)noc2n1 [compound 86]
IC50 [1]: 9.99 µM

CCCCc1ccc(N2C(=O)C=CC2=O)cc1 [compound 27]
IC50 [1]: 3.22 µM

Cc1ccc(NC(=O)Nc2ncc(-c3ccccc3)n2C)cc1Cl [compound 9]
IC50 [1]: 1.68 µM

CCn1c2ccccc2c2cc(N3C(=O)C=CC3=O)ccc21 [compound 26]
IC50 [1]: 3.18 µM

c1ccc(CN2CCOc3ccccc3CCCCC3(CCNCC3)C2)cc1 [compound 2]
IC50: 0.57 µM

O=C(O)c1ccc(-c2ccc3cc(C45CC6CC(CC(C6)C4)C5)c(O)cc3c2)cc1 [compound 13]
IC50: 2.46 µM

Brc1ccc(-c2ccc(CNCc3ccc4c(c3)OCO4)o2)cc1 [compound 68]
IC50 [1]: 8.1 µM
